# Laboratory results published in PubChem BioAssay (NCI).
#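 Following 48 hours of exposure in 96-well plates, responses at five concentrations were used to interpolate endpoints linearly. TGI is the concentration that stops growth completely.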
# Experiments:
# Test in all cases: growth of human tumour cells (NCI), 48 h
# [1] = system: 786-0 renal
# [2] = system: A498 renal
# [3] = system: A549 NSCLC
# [4] = system: ACHN renal
# [5] = system: BT-549 breast
# [6] = system: CAKI-1 renal
# [7] = system: CCRF-CEM leukemia
# [8] = system: COLO 205 colon
# [9] = system: DU-145 prostate
# [10] = system: EKVX NSCLC
# [11] = system: HCC-2998 colon
# [12] = system: HCT-116 colon
# [13] = system: HCT-15 colon
# [14] = system: HL-60(TB) leukemia
# [15] = system: HOP-62 NSCLC
# [16] = system: HS 578T breast
# [17] = system: HT29 colon
# [18] = system: IGROV1 ovarian
# [19] = system: K-562 leukemia
# [20] = system: KM12 colon
# [21] = system: LOX IMVI melanoma
# [22] = system: M14 melanoma
# [23] = system: MALME-3M melanoma
# [24] = system: MCF7 breast
# [25] = system: MDA-MB-231 breast
# [26] = system: MDA-MB-435
# [27] = system: MDA-N
# [28] = system: MOLT-4 leukemia
# [29] = system: NCI-H226 lung
# [30] = system: NCI-H23 lung
# [31] = system: NCI-H460 lung
# [32] = system: NCI-H522 lung
# [33] = system: NCI/ADR-RES ovarian
# [34] = system: OVCAR-3 ovarian
# [35] = system: OVCAR-4 ovarian
# [36] = system: OVCAR-5 ovarian
# [37] = system: OVCAR-8 ovarian
# [38] = system: PC-3 prostate
# [39] = system: RPMI-8226 leukemia
# [40] = system: RXF 393 renal
# [41] = system: SF-268 CNS
# [42] = system: SF-295 CNS
# [43] = system: SF-539 CNS
# [44] = system: SK-MEL-2 melanoma
# [45] = system: SK-MEL-28 melanoma
# [46] = system: SK-MEL-5 melanoma
# [47] = system: SK-OV-3 ovarian
# [48] = system: SN12C renal
# [49] = system: SNB-19 CNS
# [50] = system: SNB-75 CNS
# [51] = system: SR leukemia
# [52] = system: SW-620 colon
# [53] = system: T-47D breast
# [54] = system: TK-10 renal
# [55] = system: U251 CNS
# [56] = system: UACC-257 melanoma
# [57] = system: UACC-62 melanoma
# [58] = system: UO-31 renal
# [59] = system: HOP-92 NSCLC
compound,measurement,setting,value
CCCCC(/C=C\COC1CCCCO1)=C/C(=O)OCC (stereo not drawn),TGI,[1],> 100 µM
same,TGI,[2],> 100 µM
same,TGI,[3],> 100 µM
same,TGI,[4],> 100 µM
same,TGI,[5],> 100 µM
same,TGI,[6],> 100 µM
same,TGI,[7],> 100 µM
same,TGI,[8],> 100 µM
same,TGI,[9],> 100 µM
same,TGI,[10],> 100 µM
same,TGI,[11],> 100 µM
same,TGI,[12],> 100 µM
same,TGI,[13],> 100 µM
same,TGI,[14],67.5 µM
same,TGI,[15],> 100 µM
same,TGI,[16],> 100 µM
same,TGI,[17],> 100 µM
same,TGI,[18],> 100 µM
same,TGI,[19],> 100 µM
same,TGI,[20],> 100 µM
same,TGI,[21],> 100 µM
same,TGI,[22],> 100 µM
same,TGI,[23],> 100 µM
same,TGI,[24],> 100 µM
same,TGI,[25],> 100 µM
same,TGI,[26],> 100 µM
same,TGI,[27],> 100 µM
same,TGI,[28],71.5 µM
same,TGI,[29],> 100 µM
same,TGI,[30],> 100 µM
same,TGI,[31],> 100 µM
same,TGI,[32],> 100 µM
same,TGI,[33],> 100 µM
same,TGI,[34],> 100 µM
same,TGI,[35],> 100 µM
same,TGI,[36],> 100 µM
same,TGI,[37],> 100 µM
same,TGI,[38],> 100 µM
same,TGI,[39],> 100 µM
same,TGI,[40],> 100 µM
same,TGI,[41],> 100 µM
same,TGI,[42],> 100 µM
same,TGI,[43],> 100 µM
same,TGI,[44],> 100 µM
same,TGI,[45],> 100 µM
same,TGI,[46],> 100 µM
same,TGI,[47],> 100 µM
same,TGI,[48],> 100 µM
same,TGI,[49],> 100 µM
same,TGI,[50],> 100 µM
same,TGI,[51],> 100 µM
same,TGI,[52],> 100 µM
same,TGI,[53],> 100 µM
same,TGI,[54],> 100 µM
same,TGI,[55],> 100 µM
same,TGI,[56],> 100 µM
same,TGI,[57],> 100 µM
same,TGI,[58],> 100 µM
OC(Cc1ccc2ccccc2n1)(C(F)(F)Cl)C(F)(F)Cl,TGI,[1],> 10 µM
same,TGI,[2],> 10 µM
same,TGI,[3],> 10 µM
same,TGI,[4],> 10 µM
same,TGI,[5],> 10 µM
same,TGI,[6],> 10 µM
same,TGI,[7],> 10 µM
same,TGI,[8],> 10 µM
same,TGI,[9],> 10 µM
same,TGI,[10],> 10 µM
same,TGI,[11],> 10 µM
same,TGI,[12],> 10 µM
same,TGI,[13],> 10 µM
same,TGI,[15],> 10 µM
same,TGI,[59],> 10 µM
same,TGI,[16],> 10 µM
same,TGI,[17],> 10 µM
same,TGI,[18],> 10 µM
same,TGI,[19],> 10 µM
same,TGI,[20],> 10 µM
same,TGI,[21],> 10 µM
same,TGI,[22],> 10 µM
same,TGI,[23],> 10 µM
same,TGI,[24],> 10 µM
same,TGI,[25],> 10 µM
same,TGI,[26],> 10 µM
same,TGI,[27],> 10 µM
same,TGI,[28],> 10 µM
same,TGI,[29],> 10 µM
same,TGI,[30],> 10 µM
same,TGI,[31],> 10 µM
same,TGI,[32],> 10 µM
same,TGI,[33],> 10 µM
same,TGI,[34],> 10 µM
same,TGI,[35],> 10 µM
same,TGI,[36],> 10 µM
same,TGI,[37],> 10 µM
same,TGI,[38],> 10 µM
same,TGI,[41],> 10 µM
same,TGI,[42],> 10 µM
same,TGI,[43],> 10 µM
same,TGI,[45],> 10 µM
same,TGI,[46],> 10 µM
same,TGI,[47],> 10 µM
same,TGI,[48],> 10 µM
same,TGI,[49],> 10 µM
same,TGI,[50],> 10 µM
same,TGI,[51],> 10 µM
same,TGI,[52],> 10 µM
same,TGI,[53],> 10 µM
same,TGI,[54],> 10 µM
same,TGI,[55],> 10 µM
same,TGI,[56],> 10 µM
same,TGI,[57],> 10 µM
same,TGI,[58],> 10 µM
